Key:
PDK = conditions: stated in discussion, no own experiment; cited from earlier work
PDK-1 = PDK-1 (Homo sapiens, UniProt Q15118); test: PDK-1 fluorescence polarization assay (fluorescein-labelled ATP site probe); type: binding; set-up: PDK-1: residues 30-436; made in house; host or cells: E. coli BL21; conditions: titration with a probe concentration of 10 nM; read-out: Kd of PDK-1 protein with the probe
Method: carbamoyl]-2-(6-hydroxy-3-oxo-3H-xanthen-9-yl)benzoic acid), which binds to the ATP site of PDK resulting in an increase in anisotropy.
The HSP-90ß FP assay was conducted as previously described.

PDK-1, sequence (Q15118 30-436): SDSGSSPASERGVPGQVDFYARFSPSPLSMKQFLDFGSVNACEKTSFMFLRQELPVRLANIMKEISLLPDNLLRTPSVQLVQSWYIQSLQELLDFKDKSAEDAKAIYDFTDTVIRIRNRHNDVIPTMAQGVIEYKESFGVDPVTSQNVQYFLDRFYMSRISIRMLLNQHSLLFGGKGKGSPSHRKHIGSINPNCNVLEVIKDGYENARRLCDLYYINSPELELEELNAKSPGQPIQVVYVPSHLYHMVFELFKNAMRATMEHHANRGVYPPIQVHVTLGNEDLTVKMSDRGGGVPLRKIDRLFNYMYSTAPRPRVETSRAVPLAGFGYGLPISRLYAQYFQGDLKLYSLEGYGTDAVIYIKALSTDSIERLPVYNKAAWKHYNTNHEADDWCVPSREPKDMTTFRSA

## O=C(O)C(Cl)Cl [DCA]
PDK
  Concentrations required to observe modulation of glycolytic activity and cytotoxicity: 5000 to 20000 µM

## CCNC(=O)c1noc(-c2cc(Cl)c(O)cc2O)c1-c1ccc(CNC(=O)c2ccc(-c3c4ccc(=O)cc-4oc4cc(O)ccc34)c(C(=O)O)c2)cc1 [VER-160364, 5-[({4-[5-(5-chloro-2,4-dihydroxyphenyl)-3-(ethylcarbamoyl)-1,2-oxazol-4-yl]phenyl}methyl)carbamoyl]-2-(6-hydroxy-3-oxo-3H-xanthen-9-yl)benzoic acid]
PDK-1
  Kd: 30 nM

Reference: publication PMC4350332 (Oncotarget, 2014)
